# Measurements as given in PMC7235250, “Estimation of dietary ^14C dose coefficient using ^13C-labelled compound administration analysis” (Scientific Reports, 2020).
# Legend:
# [1] = Second experiment: ^13C-labelled compounds once daily for 4 successive days, ^13C/^12C ratio in breath and hair, metabolic model; settings: oral once daily for 4 days; for Rr, recovery ratio of administered ^13C / dB, distribution ratio of ^13C into breath pathway to administered ^13C / dBf, distribution ratio into fast compartment of breath pathway / dO, distribution ratio of ^13C into other* pathway (hair) to administered ^13C / dOf, distribution ratio into fast compartment of other* pathway / kBf, excretion rate constant, fast compartment, breath pathway / kBs, excretion rate constant, slow compartment, breath pathway / kOf, excretion rate constant, fast compartment, other* pathway / kOs, excretion rate constant, slow compartment, other* pathway: mean
# Excerpt: The rate of ^13C excretion for each pathway (Em, g d^−1) is given by the following equations:1 Em=∑nkmndmdmnkm/km−kmn(e^−kmnt−e^−kmt) where, m is the excretion pathway symbol of B, U, F, and O corresponding to the excretion pathways of breath, urine, faeces, and other*, respectively; n is the symbol of f and s corresponding to the compartments with fast and slow metabolism, respectively; km and kmn are the excretion rate constants from compartment Cm and Cmn, respectively; dm is the distribution ratio of ^13C into compartment Cm to the administered ^13C; dmn is the distribution ratio of ^13C into compartment Cmn to ^13C from compartment Cm; Rr is the recovery ratio of administered ^13C. The sum of distribution ratios of compartments with fast and slow metabolism was fixed to unity (i.e. dBf + dBs = 1).
# Additional doses of ^13C-labelled compounds were administered on day 160 for marking the ^13C/^12C ratio of hair samples and the volunteers freely ate meals without calorific restrictions.
# In the first experiment, breath, urine, faeces, and hair samples were periodically collected and the ^13C/^12C ratio was analysed following the procedure described in a previous paper. […] Faecal samples were collected once before day 0 and at every defecation from day 0 to 14. On day 0, additional breath and urine samples were collected frequently after administration. […] According to the section number of the two peaks, the experimental date for each section between the two peaks was determined under an assumption of uniform hair growth.
# Some volunteers also dropped out of the sampling procedure for various reasons.
# The detailed procedures used were described in a previous published paper. When urine and hair samples had no increase phase, the values of kU and kO were fixed to those of kB obtained from the same volunteers in the regression analysis.
# [2] = design: method as in doi:10.1093/oxfordjournals.rpd.a032384; settings: rats, 100 days after administration; cited from earlier work
# [3] = design: method as in PMID 14371643; settings: intravenous administration; cited from earlier work
# [4] = 50-year cumulative body burden and committed effective dose / dose coefficient calculated with the metabolic models; design: species or system human; settings: orally ingested 1 g of ^13C
# Excerpt: The dose coefficients obtained with each assumption are called non conservative estimation (ER) and conservative estimation (EC) hereafter. The recovered fraction was assumed to be distributed uniformly in the whole-body carbon with a tissue weighting factor of unity. […] In addition to these estimations, we calculated the most conservative estimation (EX) adopting the tissue weighting factor of unity for unrecovered carbon. We solely adopted the value for the maximal estimation.
# The 50-year cumulative body burden of ^14C after a single ingestion of 1 Bq of ^14C in each compound (BC Bq d) was calculated using the metabolic model and its parameters described above, under the assumption of the same metabolic behaviour of ^13C and ^14C. […] The total cumulative burden was derived as a sum of burdens from the recoverable and unrecoverable fractions with designated proportions Rr and 1−Rr, respectively. For the recoverable fraction, the burden was calculated using following equation:2 BC≈∑mdm/km+∑m∑ndmdmn/kmn where, every dm was divided by Rr when Rr was larger than unity.
# The 50-year committed effective dose (Sv) from ingestion of 1 Bq ^14C was calculated from the 50-year cumulative burden by using the ratio of absorbed dose to ^14C radioactivity, radiation weighting factor of beta-ray from ^14C (1.0) and tissue weighting factors. […]
smiles,measurement,setting,value
"NCC(=O)O [Glycine, glycine]","Rr, recovery ratio of administered ^13C",[1]; All (both sexes),1.0
same,"dB, distribution ratio of ^13C into breath pathway to administered ^13C",[1]; All (both sexes),0.80
same,"dBf, distribution ratio into fast compartment of breath pathway",[1]; All (both sexes),0.36
same,"dO, distribution ratio of ^13C into other* pathway (hair) to administered ^13C",[1]; All (both sexes),0.18
same,"dOf, distribution ratio into fast compartment of other* pathway",[1]; All (both sexes),0.50
same,"kBf, excretion rate constant, fast compartment, breath pathway",[1]; All (both sexes),11 day⁻¹
same,"kBs, excretion rate constant, slow compartment, breath pathway",[1]; All (both sexes),0.17 day⁻¹
same,"kOf, excretion rate constant, fast compartment, other* pathway",[1]; All (both sexes),0.10 day⁻¹
same,"kOs, excretion rate constant, slow compartment, other* pathway",[1]; All (both sexes),0.0086 day⁻¹
same,"Rr, recovery ratio of administered ^13C",[1]; Female,1.0
same,"dB, distribution ratio of ^13C into breath pathway to administered ^13C",[1]; Female,0.84
same,"dBf, distribution ratio into fast compartment of breath pathway",[1]; Female,0.36
same,"dO, distribution ratio of ^13C into other* pathway (hair) to administered ^13C",[1]; Female,0.18
same,"dOf, distribution ratio into fast compartment of other* pathway",[1]; Female,0.52
same,"kBf, excretion rate constant, fast compartment, breath pathway",[1]; Female,11 day⁻¹
same,"kBs, excretion rate constant, slow compartment, breath pathway",[1]; Female,0.18 day⁻¹
same,"kOf, excretion rate constant, fast compartment, other* pathway",[1]; Female,0.098 day⁻¹
same,"kOs, excretion rate constant, slow compartment, other* pathway",[1]; Female,0.0091 day⁻¹
same,"Rr, recovery ratio of administered ^13C",[1]; Male,0.93
same,"dB, distribution ratio of ^13C into breath pathway to administered ^13C",[1]; Male,0.74
same,"dBf, distribution ratio into fast compartment of breath pathway",[1]; Male,0.37
same,"dO, distribution ratio of ^13C into other* pathway (hair) to administered ^13C",[1]; Male,0.18
same,"dOf, distribution ratio into fast compartment of other* pathway",[1]; Male,0.47
same,"kBf, excretion rate constant, fast compartment, breath pathway",[1]; Male,9.7 day⁻¹
same,"kBs, excretion rate constant, slow compartment, breath pathway",[1]; Male,0.16 day⁻¹
same,"kOf, excretion rate constant, fast compartment, other* pathway",[1]; Male,0.11 day⁻¹
same,"kOs, excretion rate constant, slow compartment, other* pathway",[1]; Male,0.0080 day⁻¹
same,estimated distribution ratio of ^13C for the breath pathway (dB),"[1]; mean ± S.D., both sexes",80 ± 9%
"CCCCCCCC/C=C\CCCCCCCC(=O)O [^14C-labelled oleic acid, oleic acid]",^14C concentration in adipose tissue relative to that of palmitic acid,[2],three times higher
N[14CH2]C(=O)O [glycine-[2-^14C]],recovery through the breath pathway,[3],86%
CCCCCCCCCCCCCCCC(=O)O [palmitic acid],contribution of faeces pathway to 50-year cumulative body burden,[4],0.034 ± 0.070%
same,contribution of urine pathway to 50-year cumulative body burden,[4],0.038 ± 0.030%
